Measurements taken from paper PMC3669347, “A Multi-System Approach Assessing the Interaction of Anticonvulsants with P-gp” (PLoS ONE, 2013).
Like-named read-outs stand apart in the source and are kept apart here.

Assays:
P-gp [1] = target: T1, P-gp (Homo sapiens, UniProt P08183); set-up: induced multi-drug resistance through over-expression of P-gp; endogenous in cells; host or cells: CEM (low P-gp) and VBL100 (vinblastine-selected, high P-gp) cells; settings: cited from earlier work
P-gp [2] = target: T1, P-gp; test: Cellular accumulation assay in CEM and VBL100 cells; settings: for Accumulation in VBL100 cells compared with CEM cells / Effect of tariquidar on accumulation in VBL100 cells: 5µM drug, 30 minutes; for Effect of tariquidar on accumulation in VBL100 cells: 300nM tariquidar; for Interaction with P-gp observed: CEM/VBL cells
P-gp [3] = target: T1, P-gp; test: Concentration equilibrium transport assay in Caco-2 cells; settings: for Polarised transport in Caco-2 concentration equilibrium assay: 5µM drug, 4 hour time course, ±300nM tariquidar; for Interaction with P-gp observed: Caco-2 (equilibrium method)
P-gp [4] = target: T1, P-gp; test: X. laevis oocyte P-gp drug transport assay (efflux and accumulation); settings: for Efflux from P-gp injected oocytes vs water-injected oocytes: intra-oocyte 1µM digoxin or 5µM phenytoin, 45 minutes; for Efflux from P-gp injected oocytes vs water-injected oocytes / Accumulation in oocytes expressing human P-gp vs water-injected oocytes: 22°C; for Accumulation in oocytes expressing human P-gp vs water-injected oocytes: 20µM drug ±40µM PSC833, 1 hour; for Interaction with P-gp observed: Xenopus laevis oocytes expressing human P-gp
P-gp [5] = target: T1, P-gp; test: Concentration equilibrium transport assay in MDCKII±P-gp cells; settings: for Transport into the apical compartment, MDCKII-P-gp vs parental MDCKII cells: 5µM drug, 6 hour time course, ±300nM tariquidar; for Interaction with P-gp observed: MDCK±P-gp (equilibrium method)
P-gp [6] = target: T1, P-gp; test: Concentration equilibrium transport assay in LLC-PK1±P-gp cells; settings: for Transport into the apical compartment, LLC-PK1-P-gp vs parental LLC-PK1 cells: 5µM drug, 6 hour time course, ±300nM tariquidar; for Interaction with P-gp observed: LLC-PK1±P-gp (equilibrium method)
P-gp [7] = target: T2, P-gp (Sus scrofa, UniProt K7GMM7); test: Permeability assay in primary porcine brain endothelial cells (PBECs); assay type: in vitro ADME; settings: for Effect of verapamil or tariquidar treatment on apical to basolateral Papp: 6µM drug, 1 hour, 100µM verapamil, 300nM tariquidar; for Interaction with P-gp observed: Primary porcine brain endothelial
Procedure: The porcine brain microvessel isolation and culture protocol was based on previously published papers, [29]with modifications. Briefly, brains from six pigs (Cheale Meats Ltd., Brentwood, UK) were washed. The grey matter was homogenised, filtered, digested, centrifuged and microvessels cryopreserved.
The PBECs were seeded onto rat-tail collagen/fibronectin-coated transwell filter inserts at a density of 1×10^5cells/cm^2. […] This was conducted to elevate intracellular cAMP and thereby encourage differentiation of BBB phenotype including tight junctions. Cell monolayers were used when TEER exceeded 340 Ω.cm^2. For permeability assays, DMEM without phenol red with added HEPES (25mM) and 0.1% BSA was pH adjusted to 7.4 and used as transport medium. […] Samples were taken from both compartments.Apparent permeability (Papp) in cm/s for the compounds studied was calculated as previously described.

P-gp [8] = target: T1, P-gp; set-up: induced multi-drug resistance through over-expression of P-gp; endogenous in cells; host or cells: CEM (low P-gp) and VBL100 (vinblastine-selected, high P-gp) cells; method as in PMID 17326793; settings: Primary human brain endothelial cells; cited from earlier work
P-gp [9] = target: T1, P-gp; set-up: induced multi-drug resistance through over-expression of P-gp; endogenous in cells; host or cells: CEM (low P-gp) and VBL100 (vinblastine-selected, high P-gp) cells; method as in PMID 11318771, PMID 16882549; settings: Caco-2 bi-directional transwell; cited from earlier work
P-gp [10] = settings: Microdialysis/brain access in rodent models; cited from earlier work
human P-gp [11] = settings: cited from earlier work; for Substrate of P-gp (published evidence): Transfected human P-gp cell lines, equilibrium
P-gp [12] = target: T1, P-gp; settings: for Effect of tariquidar on accumulation in hCMEC/D3 cells: 5µM drug, 30 minutes, 300nM tariquidar; for Interaction with P-gp observed: Human brain endothelial cell line (hCMEC/D3)
Procedure: Cells were equilibrated in transport buffer (HBSS containing 25mM HEPES and 0.1% (w/v) bovine serum albumin at pH 7.4) at 37°C with accumulation assays performed as previously described [24], [25].

P-gp [13] = target: T1, P-gp; set-up: induced multi-drug resistance through over-expression of P-gp; endogenous in cells; host or cells: CEM (low P-gp) and VBL100 (vinblastine-selected, high P-gp) cells; method as in PMID 12954800; settings: LLC-PK1-P-gp cells, 100µM drug; cited from earlier work
P-gp [14] = settings: cited from earlier work; for Substrate of P-gp (published evidence): MDR1 KO Mouse; for Brain accumulation affected by rodent P-gp: MDR1 knockout mice
P-gp [15] = settings: cited from earlier work
P-gp [16] = target: T1, P-gp; set-up: induced multi-drug resistance through over-expression of P-gp; endogenous in cells; host or cells: CEM (low P-gp) and VBL100 (vinblastine-selected, high P-gp) cells; method as in PMID 17326793; settings: Primary epileptic derived human brain endothelial cells; cited from earlier work
mouse P-gp = settings: Transfected mouse P-gp cell line; bi-directional transwell method; cited from earlier work
P-gp [17] = settings: cited from earlier work; remark: listed apart in the source
human P-gp [18] = settings: Transfected human P-gp cell lines; bi-directional transwell; cited from earlier work
P-gp [19] = target: T2, P-gp; set-up: method as in PMID 12954800; settings: porcine brain endothelial cells, cited from earlier work

T1 sequence (P08183 whole entry): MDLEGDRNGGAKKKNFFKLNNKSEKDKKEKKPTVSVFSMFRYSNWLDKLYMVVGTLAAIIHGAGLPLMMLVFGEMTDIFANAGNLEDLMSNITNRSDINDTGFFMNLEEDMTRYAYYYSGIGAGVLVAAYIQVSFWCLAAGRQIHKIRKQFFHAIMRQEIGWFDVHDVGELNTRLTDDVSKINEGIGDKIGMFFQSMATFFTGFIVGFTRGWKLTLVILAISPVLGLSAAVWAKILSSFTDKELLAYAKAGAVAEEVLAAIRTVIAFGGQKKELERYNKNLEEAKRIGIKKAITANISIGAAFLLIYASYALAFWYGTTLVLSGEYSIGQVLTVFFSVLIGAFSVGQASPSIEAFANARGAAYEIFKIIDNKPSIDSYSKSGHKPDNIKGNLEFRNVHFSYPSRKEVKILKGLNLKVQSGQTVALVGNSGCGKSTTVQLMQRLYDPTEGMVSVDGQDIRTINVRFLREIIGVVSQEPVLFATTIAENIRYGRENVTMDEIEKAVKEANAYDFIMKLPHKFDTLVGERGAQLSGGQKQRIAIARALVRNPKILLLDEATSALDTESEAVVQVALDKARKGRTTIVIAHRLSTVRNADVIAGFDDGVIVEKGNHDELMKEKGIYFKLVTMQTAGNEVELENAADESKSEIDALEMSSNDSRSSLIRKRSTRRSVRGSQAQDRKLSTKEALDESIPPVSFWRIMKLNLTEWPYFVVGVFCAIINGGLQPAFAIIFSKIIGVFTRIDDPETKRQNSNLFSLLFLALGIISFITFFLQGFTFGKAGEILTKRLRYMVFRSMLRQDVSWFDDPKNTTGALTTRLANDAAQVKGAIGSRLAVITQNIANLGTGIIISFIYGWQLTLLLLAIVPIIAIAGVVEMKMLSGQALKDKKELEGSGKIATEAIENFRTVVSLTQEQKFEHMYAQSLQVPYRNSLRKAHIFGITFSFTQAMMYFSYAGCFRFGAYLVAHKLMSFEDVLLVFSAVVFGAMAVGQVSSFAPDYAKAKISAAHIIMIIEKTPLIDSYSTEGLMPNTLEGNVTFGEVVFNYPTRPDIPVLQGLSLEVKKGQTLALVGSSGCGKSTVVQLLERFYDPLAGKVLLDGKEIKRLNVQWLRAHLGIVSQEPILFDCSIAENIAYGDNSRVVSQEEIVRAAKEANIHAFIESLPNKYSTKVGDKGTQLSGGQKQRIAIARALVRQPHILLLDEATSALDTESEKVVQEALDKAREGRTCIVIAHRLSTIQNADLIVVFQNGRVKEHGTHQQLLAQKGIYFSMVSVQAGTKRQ
T2 sequence (K7GMM7 1-1248): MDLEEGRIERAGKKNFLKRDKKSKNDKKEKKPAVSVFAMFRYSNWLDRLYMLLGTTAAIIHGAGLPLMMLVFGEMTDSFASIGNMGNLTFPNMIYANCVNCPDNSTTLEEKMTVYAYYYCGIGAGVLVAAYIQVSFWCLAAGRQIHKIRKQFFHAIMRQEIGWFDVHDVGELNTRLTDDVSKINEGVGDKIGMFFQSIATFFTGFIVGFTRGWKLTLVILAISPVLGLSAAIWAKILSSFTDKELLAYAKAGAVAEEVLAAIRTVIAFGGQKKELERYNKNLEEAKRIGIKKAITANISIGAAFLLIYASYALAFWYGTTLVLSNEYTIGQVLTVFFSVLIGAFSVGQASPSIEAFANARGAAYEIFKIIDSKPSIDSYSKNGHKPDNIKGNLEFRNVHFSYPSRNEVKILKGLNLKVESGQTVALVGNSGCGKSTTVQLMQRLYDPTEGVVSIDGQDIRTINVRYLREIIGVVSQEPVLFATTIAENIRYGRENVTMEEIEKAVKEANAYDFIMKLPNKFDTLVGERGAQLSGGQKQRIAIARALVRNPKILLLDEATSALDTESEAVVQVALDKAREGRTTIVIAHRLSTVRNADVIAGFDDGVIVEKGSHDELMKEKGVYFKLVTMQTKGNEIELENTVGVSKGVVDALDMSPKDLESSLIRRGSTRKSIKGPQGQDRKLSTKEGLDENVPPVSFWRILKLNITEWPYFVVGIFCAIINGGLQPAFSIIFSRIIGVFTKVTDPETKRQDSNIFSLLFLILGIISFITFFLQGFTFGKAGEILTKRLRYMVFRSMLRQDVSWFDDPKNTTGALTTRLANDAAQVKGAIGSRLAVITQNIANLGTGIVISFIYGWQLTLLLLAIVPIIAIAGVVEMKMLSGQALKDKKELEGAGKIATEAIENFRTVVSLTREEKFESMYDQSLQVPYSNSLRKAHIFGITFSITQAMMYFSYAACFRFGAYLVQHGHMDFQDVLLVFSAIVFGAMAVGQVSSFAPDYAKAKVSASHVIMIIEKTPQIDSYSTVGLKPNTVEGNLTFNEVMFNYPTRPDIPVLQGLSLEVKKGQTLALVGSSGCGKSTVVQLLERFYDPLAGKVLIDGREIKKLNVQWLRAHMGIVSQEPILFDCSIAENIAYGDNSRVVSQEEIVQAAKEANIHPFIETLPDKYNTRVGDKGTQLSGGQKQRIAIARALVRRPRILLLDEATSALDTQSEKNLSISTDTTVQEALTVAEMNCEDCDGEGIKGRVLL

CC1(C)CCC(c2ccc(Cl)cc2)=C(CN2CCN(c3ccc(C(=O)NS(=O)(=O)c4ccc(N[C@H](CCN5CCOCC5)CSc5ccccc5)c(S(=O)(=O)C(F)(F)F)c4)cc3)CC2)C1 [ABT-263]
Identified as P-gp substrate with CEM and VBL100 cells (P-gp [1]): P-gp substrates

Cc1ccc(NC(=O)c2ccc(CN3CCN(C)CC3)cc2)cc1Nc1nccc(-c2cccnc2)n1 [imatinib]
Identified as P-gp substrate with CEM and VBL100 cells (P-gp [1]): P-gp substrates

C[C@H]1O[C@@H](O[C@H]2[C@@H](O)C[C@H](O[C@H]3[C@@H](O)C[C@H](O[C@H]4CC[C@@]5(C)[C@H](CC[C@@H]6[C@@H]5C[C@@H](O)[C@]5(C)[C@@H](C7=CC(=O)OC7)CC[C@]65O)C4)O[C@@H]3C)O[C@@H]2C)C[C@H](O)[C@@H]1O [digoxin]
Accumulation in VBL100 cells compared with CEM cells (P-gp [2]): less accumulation | Effect of tariquidar on accumulation in VBL100 cells (P-gp [2]): tariquidar restored accumulation | Polarised transport in Caco-2 concentration equilibrium assay (P-gp [3]): transported into the apical compartment and this was inhibited by tariquidar | P-gp substrate status in oocyte expression system (P-gp [4]; imatinib data not shown): confirmed to be substrates | Efflux from P-gp injected oocytes vs water-injected oocytes (P-gp [4]): higher efflux | Effect of PSC-833 on efflux from P-gp injected oocytes (P-gp [4]; intra-oocyte 1µM digoxin, 40µM PSC833): reduced | Transport into the apical compartment, MDCKII-P-gp vs parental MDCKII cells (P-gp [5]): significant increase in apical concentration | Transport into the apical compartment, LLC-PK1-P-gp vs parental LLC-PK1 cells (P-gp [6]): significantly higher transport

O=C1NC(=O)C(c2ccccc2)(c2ccccc2)N1 [phenytoin]
Effect of verapamil or tariquidar treatment on apical to basolateral Papp (P-gp [7]): not affected | Interaction with P-gp observed (P-gp [7]): No | Accumulation in VBL100 cells compared with CEM cells (P-gp [2]): No significant decrease in accumulation or tariquidar inhibition | Interaction with P-gp observed (P-gp [2]): No | Substrate of P-gp (published evidence) (P-gp [8]): No | Substrate of P-gp (published evidence) (P-gp [9]): No | Substrate of P-gp (published evidence) (P-gp [10]): Yes | Substrate of P-gp (published evidence) (human P-gp [11]): Yes | Polarised transport in Caco-2 concentration equilibrium assay (P-gp [3]): No polarised transport | Interaction with P-gp observed (P-gp [3]): No | Effect of tariquidar on accumulation in hCMEC/D3 cells (P-gp [12]): No effect of tariquidar | Interaction with P-gp observed (P-gp [12]): No | Accumulation in oocytes expressing human P-gp vs water-injected oocytes (P-gp [4]): No differences | Interaction with P-gp observed (P-gp [4]): No | Efflux from P-gp injected oocytes vs water-injected oocytes (P-gp [4]): No difference | Inhibition of the uptake of the P-gp substrate (P-gp [13]): no inhibition | Substrate of P-gp (published evidence) (P-gp [14]): Yes/No | Brain accumulation affected by rodent P-gp (P-gp [14]): affects brain accumulation | Stimulation of P-gp ATPase activity (published evidence) (P-gp [15]): No | Substrate of P-gp (published evidence) (P-gp [16]): Yes | Substrate of P-gp (published evidence) (mouse P-gp): Yes/No | Calcein-AM P-gp inhibition assay (published evidence) (P-gp [17]): No | Transport into the apical compartment, MDCKII-P-gp vs parental MDCKII cells (P-gp [5]): more phenytoin was transported into the apical compartment | Interaction with P-gp observed (P-gp [5]): Yes –“weak” | Substrate of P-gp (published evidence) (human P-gp [18]): No | Transport into the apical compartment, LLC-PK1-P-gp vs parental LLC-PK1 cells (P-gp [6]): higher in LLC-PK1-P-gp cells and inhibitable by tariquidar | Interaction with P-gp observed (P-gp [6]): Yes –“weak”

NC(=O)N1c2ccccc2C2OC2c2ccccc21 (centres unmarked) [carbamazepine-10,11-epoxide]
Transport by P-gp, concentration equilibrium approach (human P-gp [11]): does transport

NC(=O)N1c2ccccc2C=Cc2ccccc21 [carbamazepine]
Effect of verapamil or tariquidar treatment on apical to basolateral Papp (P-gp [7]): decrease | Interaction with P-gp observed (P-gp [7]): No | Accumulation in VBL100 cells compared with CEM cells (P-gp [2]): significantly higher accumulation | Effect of tariquidar on accumulation in VBL100 cells (P-gp [2]): not inhibited by tariquidar | Interaction with P-gp observed (P-gp [2]): No | Substrate of P-gp (published evidence) (P-gp [9]): No | Substrate of P-gp (published evidence) (P-gp [10]): Yes | Substrate of P-gp (published evidence) (human P-gp [11]): No | Transport by P-gp, concentration equilibrium approach (human P-gp [11]): does not transport | Polarised transport in Caco-2 concentration equilibrium assay (P-gp [3]): No polarised transport | Interaction with P-gp observed (P-gp [3]): No | Effect of tariquidar on accumulation in hCMEC/D3 cells (P-gp [12]): No effect of tariquidar | Interaction with P-gp observed (P-gp [12]): No | Accumulation in oocytes expressing human P-gp vs water-injected oocytes (P-gp [4]): No differences | Interaction with P-gp observed (P-gp [4]): No | Inhibition of the uptake of the P-gp substrate (P-gp [13]): no inhibition | Inhibition of uptake of calcein AM (P-gp [19]; 10µM): not at 10µM | Inhibition of uptake of calcein AM (P-gp [19]; 100µM): able to inhibit | Substrate of P-gp (published evidence) (P-gp [14]): No | Brain accumulation affected by rodent P-gp (P-gp [14]): not | Stimulation of P-gp ATPase activity (published evidence) (P-gp [15]): No | Substrate of P-gp (published evidence) (mouse P-gp): No | Calcein-AM P-gp inhibition assay (published evidence) (P-gp [17]): No | Transport into the apical compartment, MDCKII-P-gp vs parental MDCKII cells (P-gp [5]): no difference | Interaction with P-gp observed (P-gp [5]): No | Substrate of P-gp (published evidence) (human P-gp [18]): No | Transport into the apical compartment, LLC-PK1-P-gp vs parental LLC-PK1 cells (P-gp [6]): no transport | Interaction with P-gp observed (P-gp [6]): No

Nc1nnc(-c2cccc(Cl)c2Cl)c(N)n1 [lamotrigine]
Inhibition by tariquidar of P-gp mediated transport (human P-gp [11]; LLC-PK1-P-gp, concentration equilibrium approach, ref 18 (Luna-Tortos et al)): 60% | Brain accumulation affected by rodent P-gp (P-gp [14]): not
